Series [1] is described as follows: Compound cytotoxicity, XTT-based colorimetric assay. It is filed as cell-based. The settings on record: human; uninfected MT2 cells, day 4, XTT assay. As for the experimental part:
Compound cytotoxicity and the corresponding CC50 values were determined using the same protocol as described in the antiviral assay except that uninfected cells were used. Cytotoxicity was assessed on day 4 in uninfected MT2 cells by using an XTT (2,3-bis[2-Methoxy-4-nitro-5-sulfophenyl]-2H-tetrazolium-5-carboxyanilide inner salt)-based colorimetric assay (Sigma-Aldrich, St Louis, Mo.).
On the technique in general: Tetrazolium assays rely on reduction of a dye to a coloured formazan, in cell work by metabolically active cells.

For series [2], the system named is recombinant NL4-3 virus (nef section replaced with Renilla luciferase gene) in MT-2 cells. Briefly: HIV cell culture assay (antiviral activity, luciferase readout in infected MT-2 cells). The format is cell-based. The conditions noted are these: Renilla, NL43. The method, then: HIV cell culture assay-MT-2 cells, 293T cells and the proviral DNA clone of NL4-3 virus were obtained from the NIH AIDS Research and Reference Reagent Program. MT-2 cells were propagated in RPMI 1640 media supplemented with 10% heat inactivated fetal bovine serum (FBS), 100 μg/ml penicillin G and up to 100 units/mL streptomycin. The 293T cells were propagated in DMEM media supplemented with 10% heat inactivated FBS, 100 μg/mL penicillin G and 100 μg/mL streptomycin. A recombinant NL4-3 proviral clone, in which a section of the nef gene was replaced with the Renilla luciferase gene, was used to make the reference virus used in these studies. The recombinant virus was prepared through transfection of the recombinant NL4-3 proviral clone into 293T cells using Transit-293 Transfection Reagent from Minis Bio LLC (Madison, WI). Supernatent was harvested after 2-3 days and the amount of virus present was titered in MT-2 cells using luciferase enzyme activity as a marker by measuring luciferase enzyme activity. Luciferase was quantitated using the EnduRen Live Cell Substrate from Promega (Madison, WI). Antiviral activities of compounds toward the recombinant virus were quantified by measuring luciferase activity in MT-2 cells infected for 4-5 days with the recombinant virus in the presence of serial dilutions of the compound.
The 50% effective concentration (EC50) was calculated by using the exponential form of the median effect equation where (Fa)=1/[1+(ED50/drug conc.)m] (Johnson V A, Byington R T. Infectivity Assay. In Techniques in HIV Research. ed. Aldovini A, Walker B D. 71-76. New York: Stockton Press. 1990).

The values below come from patent US11919897B2, “Inhibitors of human immunodeficiency virus replication” (VIIV HEALTHCARE UK (No. 5) LIMITED, priority 2018, dated 2024).

By CC50 is commonly meant the concentration that lowers cell viability or growth by half. Read a low CC50 as harm at low concentration. As a reminder, the EC50 is the concentration needed to bring the measured effect to its halfway point. As to `Cn1nc(NS(C)(=O)=O)c2c(Cl)ccc(-n3c([C@H](Cc4cc(F)cc(F)c4)NC(=O)Cn4nc(C(F)F)c5c4C(F)(F)[C@@H]4C[C@H]54)nc4nc(O)ccc4c3=O)c21` (atropisomer, axis not shown; (P)) [Example 1, N—((S)-1-((3P)-3-(4-chloro-1-methyl-3-(methylsulfonamido)-1H-indazol-7-yl)-7-hydroxy-4-oxo-3,4-dihydropyrido[2,3-d]pyrimidin-2-yl)-2-(3,5-difluorophenyl)ethyl)-2-((3bS,4aR)-3-(difluoromethyl)-5,5-difluoro-3b,4,4a,5-tetrahydro-1H-cyclopropa[3,4]cyclopenta[1,2-c]pyrazol-1-yl)acetamide], in series [1], the CC50 at 4 days was above 1000 nM. In addition, the EC50 in series [2] was 2.7 nM.

The molecule `Cn1nc(NS(C)(=O)=O)c2c(Cl)ccc(-n3c([C@H](Cc4cc(F)cc(F)c4)NC(=O)Cn4nc(C(F)F)c5c4C(F)(F)[C@@H]4C[C@H]54)nc4nc(OCC5CCCC5)ccc4c3=O)c21` (atropisomer, axis not shown; (P)) [Example 2, N—((S)-1-((3P)-3-(4-chloro-1-methyl-3-(methylsulfonamido)-1H-indazol-7-yl)-7-(cyclopentylmethoxy)-4-oxo-3,4-dihydropyrido[2,3-d]pyrimidin-2-yl)-2-(3,5-difluorophenyl)ethyl)-2-((3bS,4aR)-3-(difluoromethyl)-5,5-difluoro-3b,4,4a,5-tetrahydro-1H-cyclopropa[3,4]cyclopenta[1,2-c]pyrazol-1-yl)acetamide] gave a CC50 at 4 days in series [1] above 1000 nM. Also, in series [2], the EC50 was 0.06 nM.

Turning to `Cn1nc(NS(C)(=O)=O)c2c(Cl)ccc(-n3c([C@H](Cc4cc(F)cc(F)c4)NC(=O)Cn4nc(C(F)F)c5c4C(F)(F)[C@@H]4C[C@H]54)nc4nc(OCCC(C)(C)C)ccc4c3=O)c21` (atropisomer, axis not shown; (P)) [Example 3, N—((S)-1-((3P)-3-(4-chloro-1-methyl-3-(methylsulfonamido)-1H-indazol-7-yl)-7-(3,3-dimethylbutoxy)-4-oxo-3,4-dihydropyrido[2,3-d]pyrimidin-2-yl)-2-(3,5-difluorophenyl)ethyl)-2-((3bS,4aR)-3-(difluoromethyl)-5,5-difluoro-3b,4,4a,5-tetrahydro-1H-cyclopropa[3,4]cyclopenta[1,2-c]pyrazol-1-yl)acetamide], the CC50 at 4 days in series [1] was above 1000 nM. Besides, the EC50 in series [2] came to 0.06 nM.

For the molecule `CCC(C)(C)CCOc1ccc2c(=O)n(-c3ccc(Cl)c4c(NS(C)(=O)=O)nn(C)c34)c([C@H](Cc3cc(F)cc(F)c3)NC(=O)Cn3nc(C(F)F)c4c3C(F)(F)[C@@H]3C[C@H]43)nc2n1` (atropisomer, axis not shown; (P)) [Example 13, N—((S)-1-((3P)-3-(4-chloro-1-methyl-3-(methylsulfonamido)-1H-indazol-7-yl)-7-((3,3-dimethylpentyl)oxy)-4-oxo-3,4-dihydropyrido[2,3-d]pyrimidin-2-yl)-2-(3,5-difluorophenyl)ethyl)-2-((3bS,4aR)-3-(difluoromethyl)-5,5-difluoro-3b,4,4a,5-tetrahydro-1H-cyclopropa[3,4]cyclopenta[1,2-c]pyrazol-1-yl)acetamide], the EC50 in series [2] was 0.17 nM.

Regarding `Cn1nc(NS(C)(=O)=O)c2c(Cl)ccc(-n3c([C@H](Cc4cc(F)cc(F)c4)NC(=O)Cn4nc(C(F)F)c5c4C(F)(F)[C@@H]4C[C@H]54)nc4nc(OCCCC(C)(C)C)ccc4c3=O)c21` (atropisomer, axis not shown; (P)) [Example 19], in series [2], the concentration giving a half-maximal response (EC50) is 0.11 nM.
